Measurements as given in paper PMC13197777, “Distinct 2-phenylimidazo[1,2-a]pyridine derivatives that inhibit breast cancer cell proliferation identified as AHR ligands” (iScience, 2026).
Converted amounts (≈) assume the structure as drawn. Like-named read-outs stand apart in the source and are kept apart here.

Key:
[1] = system: MCF-7 luc D538G and MCF-7 luc Y537S; assay: Clonogenic assay, cells expressing the two mutant ERs (range over both); assay type: cell-based; details: Homo sapiens, MCF7, read-out: IC50 clonal expansion in cells expressing the two mutant ERs
Method: (§1) Cells were seeded at a density of 1–2×10^3 cells/well in a 6-well plate and treated with increasing concentrations of the X compounds for 14–21 days. Medium and compounds were renewed every 7 days. The experiments were terminated by fixing the cells with methanol and the colonies formed were visualized after staining with 0.5% crystal violet (w/v) in 20% methanol (v/v). Plates were photographed and the area covered by the colonies was calculated using the ColonyArea Plugin for Fiji (RRID:SCR_003070).[20]

CTC-ITB-01 cells = assay: cells; assay type: cell-based; details: Homo sapiens, read-out: LC50
Method: LC50 values were measured using the CyQUANT NF Cell Proliferation Assay Kit (Thermo Fisher). CTC-ITB-01 cells were plated at a density of 2x10^3 cells/well in 96-well plates and treated the following day with serial dilutions of the test compounds. After incubation for the indicated time, cells were stained with CyQUANT dye according to the manufacturer’s protocol and incubated at 37°C for 30 min. Fluorescence was measured using a Tecan Infinite M Nano+ (excitation: 485 nm; emission: 530 nm). For the calculation of the LC50 the fluorescence was plotted against the Log10 of the inhibitor concentration in nM as x values and the LC50 values were calculated with 95% confidence intervals (n = 4).

MCF-7 luc = assay: Clonogenic assay (clonal expansion), MCF-7 cells expressing wild-type ER; assay type: cell-based; details: Homo sapiens, MCF7, 336 h
Method: as §1

MCF-7 luc D538G = assay: Clonogenic assay (clonal expansion), MCF-7 cells with D538G ER mutation; assay type: cell-based; details: Homo sapiens, MCF7, 336 h
Method: as §1

PDxO#28 = assay: Organoid viability, CellTiter-Glo 3D; assay type: cell-based, human; details: PDxO#28 in 3D Matrigel, 7 days, increasing doses; same results in PDO#268 and PDO#480
From the text: Organoids were generated from patients’ samples and from patient-derived xenograft (PDX) tumors, as previously described.[25] PDX were derived from BCRO#28, an ER^+ breast cancer sample collected from a treatment naive patient. PDO#268 was derived from BCRO#268, an ER^+ breast cancer sample collected from treatment naive patient. PDO#480 was derived from BCRO#480, an ER^+ breast cancer sample collected from a patient subjected to chemotherapy in neo-adjuvant setting. Briefly, tumors freshly explanted from mice were mechanically shredded, digested with collagenase (Merck) and filtered through a 100 μm strainer. Digested material (isolated cells and small cell clusters) was centrifuged and embedded in 3D-matrix drops (reduced growth factor Basement Membrane Extract, BME, R&D systems), then overlaid with breast cancer organoid medium.[25] For 3D survival curves under treatment, organoids were embedded in BME drops and, after 24 - 48 h, drugs were added. Fresh drug-containing medium was replaced on day 4. On day 7 of treatment, CellTiter-Glo 3D Cell Viability Assay (Promega) was added and luminescent signal from viable organoids was recorded on Infinite M1000 Pro instrument (Tecan).

ERα full-length = target: T1, ERα full-length (Homo sapiens, UniProt P03372); assay: PolarScreen ERα Competitor Assay (fluorescence polarization); assay type: binding
T1 construct: 34 nM ERα full-length and 1.4 nM Fluormone EL Red were incubated; purchased ThermoFisher A15884
T1 sequence (P03372 1-595): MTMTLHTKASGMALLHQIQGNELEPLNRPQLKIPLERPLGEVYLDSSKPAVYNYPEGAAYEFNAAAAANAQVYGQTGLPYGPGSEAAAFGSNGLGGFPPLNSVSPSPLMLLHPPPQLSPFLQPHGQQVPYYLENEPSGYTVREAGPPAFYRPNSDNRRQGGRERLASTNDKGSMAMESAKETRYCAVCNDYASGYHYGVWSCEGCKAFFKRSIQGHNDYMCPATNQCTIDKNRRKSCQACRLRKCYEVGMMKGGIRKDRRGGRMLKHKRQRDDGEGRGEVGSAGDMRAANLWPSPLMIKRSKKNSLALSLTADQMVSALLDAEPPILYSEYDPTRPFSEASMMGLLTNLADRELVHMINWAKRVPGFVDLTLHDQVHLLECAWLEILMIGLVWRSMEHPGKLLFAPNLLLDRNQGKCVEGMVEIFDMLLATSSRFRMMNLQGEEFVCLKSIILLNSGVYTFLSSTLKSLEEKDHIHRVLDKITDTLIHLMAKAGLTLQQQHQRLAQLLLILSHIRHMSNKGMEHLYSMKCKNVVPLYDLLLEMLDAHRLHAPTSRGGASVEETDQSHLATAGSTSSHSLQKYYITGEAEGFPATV
Method: The PolarScreen Estrogen Receptor-Alpha Competitor Assay, Red (ThermoFisher, A15884) was used to determine if the X compounds bind to ERα. The assay was performed according to the manufacturer’s protocol.

[2] = system: ERα LBD or full-length ERα; assay: Nuclear receptor activity profiling (NAPing), E2-induced ERα-coregulator interaction; assay type: biochemical; details: E2 −8.5 logM, compound −5.5 logM, LBD or full-length ER
Method: Preparation of assay mixes with ERα recombinant ligand binding domain (LBD) and full-length ERα in MCF-7 extracts and measurement of coregulator recruitment on the NAPing platform (PML, Oss, The Netherlands) was performed as described previously.[68]^,[69] […] Unbound ERα and antibodies were removed by washing. Residual ERα binding to each coregulator motifs was recorded on tiff images and quantified using an R-based analysis software package (PML, Oss, The Netherlands).

MCF-7 luc Y537S = assay: Clonogenic assay (clonal expansion), MCF-7 cells with Y537S ER mutation; assay type: cell-based; details: Homo sapiens, MCF7, 336 h
Method: as §1

MCF-7 cells = assay: Clonogenic assay in MCF-7 cells with AHR antagonist CH223191; assay type: cell-based, human; details: MCF-7, 10 nM compound, 1 μM CH223191, 14 days
Method: as §1

[3] = design: method as in earlier work; details: IUPAC Digitized pKa Dataset ref 30; cited from earlier work
ERα in MCF-7 cells = assay: Immunoblot of ERα in MCF-7 cells; assay type: cell-based, human; details: MCF-7, 48 h, increasing concentrations up to 1 μM
Method: To determine the relative expression of proteins by Western blotting, cells were first washed with ice-cold phosphate buffered saline (PBS). Subsequently, they were lysed in ice-cold NP40 lysis buffer (1%NP-40, 50 mM Tris-HCl, pH 8.0, 150 mM NaCl, 5 mM Ethylenediaminetetraacetic acid [EDTA], 1 mM PMSF) on ice. DNA was degraded by sonification (five pulses at 50 amplitudes). Protein concentration was determined, and equal amounts of protein were separated on a 9% SDS-PAGE gel. The proteins were transferred onto nitrocellulose membrane by a standard Western blotting protocol and the membranes were incubated with the following antibodies: ERα (Santa Cruz Biotechnology, sc-8002, RRID: AB_627558) and PCNA (Santa Cruz Biotechnology, sc-56, RRID: AB_628110), followed by incubation with HRP labeled Goat anti-mouse Immunoglobulins (DAKO, P0447, RRID: AB_2617137).

[4] = Thermodynamic solubility, shake-flask method; assay type: physicochemical; details: HEPES buffer 0.1 M pH 7.4, 21 °C
Method: Thermodynamic solubility was determined using the classical shake-flask method. The solid compound (4 mg) was suspended in 1 mL HEPES buffer (0.1 M, pH 7.4) and constantly stirred at 21 °C for 24 h. […] The injection volume for all analyses was 50 μL and the flow rate was kept at 1 mL/min during the analysis. A mobile phase gradient method was applied as a method with 5% solvent B to 99% solvent B in 5 min, followed by 3 min of elution at 99% solvent B.
Calibration curve was generated from a serial dilution of the respective analyte in DMSO at 2.5, 1.25, 0.625, 0.313, 0.156, 0.078, 0.039 mM starting from a 10 mM DMSO stock solution. Subsequently, 2 μL of each dilution was added to 198 μL of a buffer (HEPES, 0.1 M, pH 7.4)/acetonitrile mixture in a 3:2 ratio yielding final dilutions of 25, 12.5, 6.25, 3.125, 1.562, 0.781, 0.391 μM. These were then subjected to HPLC analysis as described above.
Using the results from the linear regression of the internal calibration measurement points (Figure S5) and the mean AUC values from the saturated aqueous solutions, the concentration C of the analytes in the saturated aqueous solution, expressed in μM, were calculated using Equation 2:(Equation 1) AUC=Slope·C+YIntercept (Equation 2) C=AUC−YIntercept/Slope

[5] = Compound stability in aqueous environment; assay type: physicochemical; details: 12.5 μM, HEPES pH 7.4/acetonitrile 3:2, 1% DMSO, 21 °C, 5 days
Method: The stability of the compounds was evaluated at a concentration of 12.5 μM in a 3:2 mixture of buffer (HEPES, 0.1 M, pH 7.4) and acetonitrile, with 1% DMSO. Acetonitrile was added because the concentration of 12.5 μM exceeded the thermodynamic solubility of the compounds in the buffer. This addition thereby prevented the formation of precipitates and a gradual decrease in compound concentration during the measurement. The resulting solution was stirred at 21 °C in a sealed vial (crimp neck vials, 5 mL, clear (Cat. No. 548-0611A) in combination with natural rubber septa (548-0565A) and aluminum crimp caps (548-3278A), VWR International) for 5 days. […] The AUC measured was subsequently plotted as a function of the incubation time (Figure S3). No signs of decomposition could be observed over the given time.

[6] = system: AHR target genes CYP1A1, CYP1B1, ALDH3A1; details: human, 16 h, 1 µM
[7] = HEPES buffer, 21 °C, pH 7.4, aqueous buffer, thermodynamic from solid

C[C@]12CC[C@@H]3c4ccc(O)cc4C[C@@H](CCCCCCCCC[S+]([O-])CCCC(F)(F)C(F)(F)F)[C@H]3[C@@H]1CC[C@@H]2O (some centres unmarked) [Fulvestrant, reference compound]
IC50 [1]: 6.6 to 9.57 nM | CC50 (CTC-ITB-01 cells; 48 h): 8800 nM | CC50 (CTC-ITB-01 cells; 120 h): 6300 nM | IC50 (MCF-7 luc; Figure 1B, MCF-7 luc, absence of E2, 14 days): 0.14 nM | IC50 (MCF-7 luc; Figure 1C, MCF-7 luc + 10 nM E2, 14 days): 69.2 nM | IC50 (MCF-7 luc; Figure 1D, MCF-7 luc, absence of E2, 14 days): 0.12 nM | IC50 (MCF-7 luc; Figure 1E, MCF-7 luc + 10 nM E2, 14 days): 78.1 nM | IC50 (MCF-7 luc D538G; read-out: IC50 clonal expansion, Figure 1B, MCF-7 luc D538G, absence of E2, 14 days): 9.57 nM | IC50 (MCF-7 luc D538G; read-out: IC50 clonal expansion, Figure 1C, MCF-7 luc D538G + 10 nM E2, 14 days): 1910 nM | IC50 (MCF-7 luc D538G; read-out: IC50 clonal expansion, Figure 1D, MCF-7 luc D538G, absence of E2, 14 days): 12.2 nM | IC50 (MCF-7 luc D538G; read-out: IC50 clonal expansion, Figure 1E, MCF-7 luc D538G + 10 nM E2, 14 days): 1910 nM | organoid viability (survival) (PDxO#28): modest | displacement of the Fluormone tracer from ERα (ERα full-length): efficiently displaced the Fluormone tracer | disruption of coactivator peptide binding to E2-liganded ERα [2]: clearly disrupted binding of the coactivator peptides | IC50 (MCF-7 luc Y537S; read-out: IC50 clonal expansion, Figure 1B, MCF-7 luc Y537S, absence of E2, 14 days): 6.6 nM | IC50 (MCF-7 luc Y537S; read-out: IC50 clonal expansion, Figure 1C, MCF-7 luc Y537S + 10 nM E2, 14 days): 150 nM | IC50 (MCF-7 luc Y537S; read-out: IC50 clonal expansion, Figure 1D, MCF-7 luc Y537S, absence of E2, 14 days): 7.47 nM | IC50 (MCF-7 luc Y537S; read-out: IC50 clonal expansion, Figure 1E, MCF-7 luc Y537S + 10 nM E2, 14 days): 147 nM | inhibition of colony expansion in the presence of AHR antagonist CH223191 (MCF-7 cells): inhibited colony growth in the presence of CH223191

c1ccn2ccnc2c1 [Imidazo(1,2-a)pyridine]
experimental pKa [3]: 6.79

FC(F)(F)c1cc(Cl)c2nc(-c3ccccc3)cn2c1 [X15696]
ERα destabilization (immunoblot) (ERα in MCF-7 cells): most proficient in destabilizing ERα | solubility thermodynamic at 24 h [4]: 5 µM (≈ 1.48 µg/mL) | solubility thermodynamic at 24 h [4, 7]: 5.11 µM (≈ 1.52 µg/mL) | stability in aqueous environment [5]: no obvious decomposition detected | expression of AHR target genes (RT-PCR) [6]: enhanced the transcriptional activity of the AHR target genes in both MCF-7 and T47D cells | inhibition of colony expansion in the presence of AHR antagonist CH223191 (MCF-7 cells): clearly abrogated by the AHR antagonist CH223191

Fc1ccccc1-c1cn2cc(C(F)(F)F)cc(Cl)c2n1 [X19720]
ERα destabilization (immunoblot) (ERα in MCF-7 cells): most proficient in destabilizing ERα | solubility thermodynamic at 24 h [4]: 1.4 µM (≈ 0.441 µg/mL) | solubility thermodynamic at 24 h [4, 7]: 1.35 µM (≈ 0.425 µg/mL) | stability in aqueous environment [5]: no obvious decomposition detected | expression of AHR target genes (RT-PCR) [6]: enhanced the transcriptional activity of the AHR target genes in both MCF-7 and T47D cells | inhibition of colony expansion in the presence of AHR antagonist CH223191 (MCF-7 cells): clearly abrogated by the AHR antagonist CH223191
